From patent US9314540B2, “Compounds for use in imaging, diagnosing and/or treatment of diseases of the central nervous system” (PIRAMAL IMAGING SA, priority 2010, dated 2016)

Tests used:
[1] = Plasma radioactivity and metabolite profile over time in cynomolgus monkey plasma; format: in vivo
Source text: D2 Deprenyl and non-deuterated [^18F] Deprenyl in cynomolgus monkey plasma.
D2 Deprenyl and (b) non-deuterated [^18F] Deprenyl in cynomolgus monkey plasma. The time course of the parent compounds as well as metabolites expressed in [area %] generated from respective HPLC chromatograms are shown.
Plasma radioactivity metabolic profiles have been monitored over time for [^18F] D2 Deprenyl compared to the non-deuterated [^18F] Deprenyl in cynomolgus monkey plasma (FIG. 3). […] D2 Deprenyl in plasma the radioactivity for [^18F] D2 Deprenyl was 18% and 31% higher as observed for [^18F] Deprenyl at the 30 and 60 min time points, respectively (FIG. 3). In addition, metabolites occurring in cynomolgus monkey plasma over time have been monitored for both ligands (FIG. 4). […] Deprenyl. Specifically metabolite M1 was less produced (FIG. 4a). In addition, time activity curves (TAC) of [^18F] […] This gives more flexibility regarding quantification of the PET data and is, thus, an advantage.

[2] = Biodistribution in NMRI mice, brain radioactivity by gamma counter; format: in vivo; details: for brain uptake of radioactivity (peak): 2 min p.i.
Experimental: FIG. 1: Distribution of [^18F] D2 Deprenyl (compound of Example 3) detected via a gamma-detector is shown in a time frame of 4 hours in mouse brains (n=3).
Biodistribution of [^18F] D2 Deprenyl (compound of Example 3) was investigated in NMRI mice weighing 31.1-38.5 g at seven time points. For each time point 3 mice were used. The mice were injected each with 0.256 MBq [^18F] D2 Deprenyl. After the respective time points the mice were sacrificed, the organs taken out and measured in a gamma counter. The results were decay corrected. […] Unexpectedly, the elimination ratio defined by peak uptake at 2 min to uptake at 30 min was 4.2 times. This is improved over the non-deuterated compound where said ratio was 3.6 (Peak: 7.5±0.04% ID/g at 2 min p.i. and 2.10±0.33% ID/g at 30 min p.i.) and will add to a better brain image quality. Therefore, an improved diagnostic performance can be expected.

[3] = target: T1, MAO-A (Homo sapiens, UniProt P21397); assay: Amplex Red Monoamine Oxidase Assay-Kit, MAO-A affinity; format: biochemical; details: read-out: affinity towards MAO-A
T1 sequence (P21397 1-527): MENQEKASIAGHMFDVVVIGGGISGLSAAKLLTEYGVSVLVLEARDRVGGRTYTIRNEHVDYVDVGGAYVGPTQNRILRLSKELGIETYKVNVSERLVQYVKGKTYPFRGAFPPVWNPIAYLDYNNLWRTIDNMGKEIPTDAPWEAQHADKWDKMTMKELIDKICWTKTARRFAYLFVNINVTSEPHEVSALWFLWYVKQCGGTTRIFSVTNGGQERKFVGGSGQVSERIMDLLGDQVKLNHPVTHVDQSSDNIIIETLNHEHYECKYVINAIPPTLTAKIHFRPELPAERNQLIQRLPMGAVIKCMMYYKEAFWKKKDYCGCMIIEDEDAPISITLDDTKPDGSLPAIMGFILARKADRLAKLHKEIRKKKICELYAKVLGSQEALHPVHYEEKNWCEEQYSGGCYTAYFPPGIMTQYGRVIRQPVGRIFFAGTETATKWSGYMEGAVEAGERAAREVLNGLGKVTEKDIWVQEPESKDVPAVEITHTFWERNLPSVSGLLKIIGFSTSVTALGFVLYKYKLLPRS

[4] = target: T2, human MAO-B (Homo sapiens, UniProt P27338); assay: Amplex Red Monoamine Oxidase Assay-Kit, MAO-B affinity; format: biochemical; details: human MAO-B from baculovirus-infected insect cells; read-out: affinity towards MAO-B, IC50
T2 construct: purchased Sigma; host or cells: insect cells infected with recombinant baculovirus
T2 sequence (P27338 1-520): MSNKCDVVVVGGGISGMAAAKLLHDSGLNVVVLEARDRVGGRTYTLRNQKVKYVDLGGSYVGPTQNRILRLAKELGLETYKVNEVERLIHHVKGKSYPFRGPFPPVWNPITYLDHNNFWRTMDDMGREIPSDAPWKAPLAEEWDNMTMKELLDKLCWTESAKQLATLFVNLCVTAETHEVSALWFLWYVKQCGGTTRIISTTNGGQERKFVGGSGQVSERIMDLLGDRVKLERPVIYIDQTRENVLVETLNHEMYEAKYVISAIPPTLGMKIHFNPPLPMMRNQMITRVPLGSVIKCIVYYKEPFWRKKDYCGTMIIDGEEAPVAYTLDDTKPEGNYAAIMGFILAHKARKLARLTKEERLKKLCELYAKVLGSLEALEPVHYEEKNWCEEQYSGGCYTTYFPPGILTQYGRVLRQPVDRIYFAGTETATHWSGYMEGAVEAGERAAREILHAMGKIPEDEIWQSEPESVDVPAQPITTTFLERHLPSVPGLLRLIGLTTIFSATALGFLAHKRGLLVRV
Experimental: [^19F] […] This was determined by incubating human MAO-B prepared from insect cells infected with recombinant baculovirus containing respective cDNA inserts (Sigma) with respective reagents of the Amplex Red Monoamine Oxidase Assay-Kit (Molecular Probes).

[5] = In vitro metabolite profile in liver microsomes and hepatocytes (LC/MS); format: in vitro ADME, rat, mouse and human; details: for oxidation at the propargyl moiety (M-7) as additional metabolic pathway: microsome and hepatocyte incubations; for major metabolic pathway: rat, mouse and human liver microsomes, human and rat hepatocytes
Source text: FIG. 9: In vitro metabolite pathways in rat, mouse, dog, monkey and human microsomes and rat and human heaptocyte preparations. The metabolites were detected by LC/MS. (a) Metabolite pathways of non-deuterated [^18F] Deprenyl and (b) Metabolite pathways of [^18F] D2 Deprenyl.
[^18F] D2 Deprenyl and [^19F] D2 Deprenyl have been investigated regarding their metabolic properties in vitro and in vivo. […] D2 Deprenyl (FIG. 9).

SMILES | formation of metabolite M1 compared to non-deuterated [18F] Deprenyl [1] | stability in plasma compared to non-deuterated [18F] Deprenyl [1] | plasma radioactivity higher than for [18F] Deprenyl ([1]; 30 min) | plasma radioactivity higher than for [18F] Deprenyl ([1]; 60 min) | elimination ratio, peak uptake at 2 min to uptake at 30 min [2] | brain uptake of radioactivity (peak) [2] | brain radioactivity ([2]; 30 min p.i.) | brain radioactivity ([2]; 4 hours p.i.) | IC50 [3] | IC50 [4] | oxidation at the propargyl moiety (M-7) as additional metabolic pathway [5] | major metabolic pathway [5]
[2H]C([2H])(C#C)N(C)[C@H](CF)Cc1ccccc1 [[^18F] D2 Deprenyl, N-[(2S)-1-[^18F]fluoro-3-phenylpropan-2-yl]-N-methyl(1,1-^2H2)— prop-2-yn-1-amine] | less produced | more stable | 18% | 31% | 4.2 | 6.03±1.09 % ID/g | 1.44±0.15 % ID/g | 0.91±0.09 % ID/g | – | – | – | –
[2H]C([2H])(C#C)N(C)[C@H](CF)Cc1ccccc1 [[^19F] D2 Deprenyl, N-[(2S)-1-fluoro-3-phenylpropan-2-yl]-N-methyl(1,1-^2H)prop-2-yn-1-amine] | – | – | – | – | – | – | – | – | > 2000 nM | 41.3 nM | not detectable any more | N-dealkylation
C#CCN(C)[C@H](C[18F])Cc1ccccc1 [non-deuterated compound, reference compound] | – | – | – | – | 3.6 | 7.5±0.04 % ID/g | 2.10±0.33 % ID/g | – | – | – | observed | N-dealkylation
